Laboratory results reported in paper PMC9256669, “Monomethyl auristatin antibody and peptide drug conjugates for trimodal cancer chemo-radio-immunotherapy” (Nature Communications, 2022).
Where “and” joins values, the source holds several entries; their conditions need not be identical. Equal values may be shown once. Read-outs that look alike come from different tables or passages of the source. Non-standard residues stand in square brackets, D forms with d. Residues, ends and D or L forms follow the SMILES beside them. *: point of attachment. Dolaproine = CO[C@@H]([C@@H]1CCCN1)[C@@H](C)C(=O)O; Dil = CC[C@H](C)[C@H](NC)[C@@H](CC(=O)O)OC; X1 = C[C@@H](N*)[C@@H](O)c1ccccc1; NMeV = CN[C@H](C(=O)O)C(C)C

How the values were obtained:
B16 cells = assay: NanoString PanCancer IO 360 gene expression and gene set analysis of MMAE-treated cells; format: cell-based, murine
Description: RNA was isolated from cells or tumor tissues and comprehensive immune profiling was analyzed using the NanoString PanCancer IO 360 Panel and NanoString nCounter PanCancer Mouse Immune Profiling gene expression platforms. Gene set analysis with calculated global significance scores and directed significance scores were calculated for treated cells. The Advanced Analysis module of the nSolver software was used to analyze genes associated with listed immune cells in tumors and given a Z-score (n = 3 mice per group). Expression levels of GZMB were analyzed using real-time quantitative PCR. Reverse transcription was performed with the iScript cDNA synthesis kit (Biorad), using aliquots of total RNA extracted with RNeasy Plus Mini Kit (Qiagen). Gene-specific primers were GZMB-F […] and GZMB-R […]. Real-time PCR reactions were performed using the CFX Connect Real-Time PCR System (Biorad) and the amplifications were done using the iTaq Universal SYBR Green Supermix (Biorad). qPCR data were analyzed using the Bio-Rad CFX Maestro software. […]
a Undirected Directed Enrichment
Pathway # of Genes Enrichment Score Score
Gene Name Supplementary Figure 1: Gene
Mdm2 expression analysis of MMAE treated
Casp3 cells. B16 cells exposed to 5 nM MMAE for
Bcl2l1 72 hrs. RNA collected and analyzed using Cd68 murine NanoString PanCancer IO 360
Thbs1 Panel. a) Gene set analysis with calculated
Gls global significance scores and directed
Fstl3 significance scores. b) Heatmap depicting
Mfge8 2 differential gene expression of 36 genes
Brd3 1 control and MMAE treated cells. Source
Pias4 0 data are provided in Source Data file under
Fzd9 tab labeled Figure 1b.
Supplementary Data 1: Complete NanoString expression data of Figure 1b. Untreated control (n=2) and 5 nM MMAE treated (n=3) B16 cells were harvested at 72 hrs. RNA was collected and analyzed using NanoString PanCancer IO 360 Panel. Individual normalized RNA expression values shown for each gene. […]

B16 tumors = conditions: status at the day printed in the same line, one line per mouse
Description: MOC1, B16, LL/2, and MC38 tumor cells were injected subcutaneously into the hindlimbs of 6-week-old female C57BL/6 albino mice in 100 µl of 1:1 Matrigel (BD) and PBS solution. Fractionated IR was delivered focally to the tumor-bearing hindlimbs (3 Gy to MC38 tumors and 5 Gy to LL/2 and B16 tumors) as indicated in figure legends using a PXI X-RAD 225 XL irradiator at maximal dose rate of 3 Gy/min with a beam-conditioning aluminum filter (Precision X-ray Irradiation). For RAG1 KO studies, 6-week-old female Rag1^tm1Mom mice were injected subcutaneously with tumor cells in their hindlimbs (Jackson Labs). For CD8 depletion studies, mice were i.p. injected with anti-CD8 (BioXCell #BE0117) at 10 mg/kg on days −6, −5 and −4 tumor cell implant and then weekly starting on day after tumor cells were injected or control antibody. […] Tumor volumes were measured and calculated using the formula as ½ * length * width^2. Mice were sacrificed when tumor volume reached >1500 mm^3, maximal tumor volume approved on our protocol for subcutaneous tumors.

MOC2 tumors = assay: Orthotopic syngeneic tongue tumor therapy, tumor volumes; format: in vivo, C57BL/6 mice; conditions: single 2.5 nmole i.v. injection
Text: Orthotopic tongue xenograft tumors were established in 6-week-old NOD SCID mice by injecting 150,000 CAL27 parental (WT) or PIK3CA H1047R-expressing cells. […] On the last day of tumor xenograft measurements, mice were euthanized, tongues resected, imaged, and fixed. […] IR was delivered as 2 parallel opposed fields.
6-week-old C57BL/6 female mice were implanted with 50,000 MOC2 cells into the tongue. […] Five days after treatment, tumors were isolated, minced, and re-suspended in FBS-free DMEM media supplemented with components of MACs tumor dissociation kit. Tissues were incubated for 15 min at 37 °C and mechanically digested using the gentle MACs Octo Dissociator. Digested samples were then passed through a 100-µm strainer to acquire a single-cell. For viability staining, cells were washed in PBS and stained with Cell-ID Cisplatin (DVS Sciences) to a final concentration of 5 μM for 5 min at room temperature. Cisplatin was quenched when cells were washed and stained with the antibody cocktail. Antibodies were prepared in Maxpar cell staining buffer (PBS with 2 mM EDTA, 0.1% BSA, 0.05% NaN3) and incubated with cells for 15 min at room temperature. […] Antibodies (clone in parenthesis) used for CyTOF included B220 (RA3-6B2), CD117(2B8), CD11c (N418), CD25 (3C7), CD4 (RM4-5), CD45 (30-F11), CD8a (53-6.7), MHC-II (M5/114.15.2), NKP46 (29A1.4), TCRb (H57-597) from Fluidigm. […]

[1] = 5 nM MMAE 72 hrs, gene set analysis
[2] = 5 nM MMAE 72 hrs, samples MMAE_5, MMAE_1, MMAE_3

CC[C@H](C)[C@@H]([C@@H](CC(=O)N1CCC[C@H]1[C@H](OC)[C@@H](C)C(=O)N[C@H](C)[C@@H](O)c1ccccc1)OC)N(C)C(=O)[C@@H](NC(=O)[C@@H](NC)C(C)C)C(C)C [MMAE, monomethyl auristatin E] (H-[NMeV]V[Dil][Dolaproine]-X1)
Directed Enrichment Score: Angiogenesis (B16 cells; [1]): 1.8412
Directed Enrichment Score: Antigen Presentation (B16 cells; [1]): 0.8121
Directed Enrichment Score: Apoptosis (B16 cells; [1]): 0.9856
Directed Enrichment Score: Autophagy (B16 cells; [1]): -3.279
Directed Enrichment Score: Cell Proliferation (B16 cells; [1]): -0.7774
Directed Enrichment Score: Costimulatory Signaling (B16 cells; [1]): -1.9366
Directed Enrichment Score: Cytokine and Chemokine Signaling (B16 cells; [1]): -1.4236
Directed Enrichment Score: Cytotoxicity (B16 cells; [1]): 0.8779
Directed Enrichment Score: DNA Damage Repair (B16 cells; [1]): -1.9501
Directed Enrichment Score: Epigenetic Regulation (B16 cells; [1]): -1.7988
Directed Enrichment Score: Hedgehog Signaling (B16 cells; [1]): -2.2414
Directed Enrichment Score: Hypoxia (B16 cells; [1]): -2.4508
Directed Enrichment Score: Immune Cell Adhesion and Migration (B16 cells; [1]): -1.0133
Directed Enrichment Score: Interferon Signaling (B16 cells; [1]): 0.9986
Directed Enrichment Score: JAK-STAT Signaling (B16 cells; [1]): -1.657
Directed Enrichment Score: Lymphoid Compartment (B16 cells; [1]): 0.8253
Directed Enrichment Score: MAPK (B16 cells; [1]): -1.437
Directed Enrichment Score: Matrix Remodeling and Metastasis (B16 cells; [1]): 1.1775
Directed Enrichment Score: Metabolic Stress (B16 cells; [1]): -2.3196
Directed Enrichment Score: Myeloid Compartment (B16 cells; [1]): 0.1922
Directed Enrichment Score: NF-kappaB Signaling (B16 cells; [1]): -0.7242
Directed Enrichment Score: Notch Signaling (B16 cells; [1]): -1.0152
Directed Enrichment Score: PI3K-Akt (B16 cells; [1]): -1.358
Directed Enrichment Score: TGF-beta Signaling (B16 cells; [1]): -2.2971
Directed Enrichment Score: Wnt Signaling (B16 cells; [1]): -2.3166
Undirected Enrichment Score: Angiogenesis (B16 cells; [1]): 2.7066
Undirected Enrichment Score: Antigen Presentation (B16 cells; [1]): 1.2276
Undirected Enrichment Score: Apoptosis (B16 cells; [1]): 2.3071
Undirected Enrichment Score: Autophagy (B16 cells; [1]): 3.5536
Undirected Enrichment Score: Cell Proliferation (B16 cells; [1]): 2.1596
Undirected Enrichment Score: Costimulatory Signaling (B16 cells; [1]): 2.2732
Undirected Enrichment Score: Cytokine and Chemokine Signaling (B16 cells; [1]): 1.9551
Undirected Enrichment Score: Cytotoxicity (B16 cells; [1]): 1.637
Undirected Enrichment Score: DNA Damage Repair (B16 cells; [1]): 2.4043
Undirected Enrichment Score: Epigenetic Regulation (B16 cells; [1]): 2.4405
Undirected Enrichment Score: Hedgehog Signaling (B16 cells; [1]): 3.1229
Undirected Enrichment Score: Hypoxia (B16 cells; [1]): 2.9454
Undirected Enrichment Score: Immune Cell Adhesion and Migration (B16 cells; [1]): 1.8838
Undirected Enrichment Score: Interferon Signaling (B16 cells; [1]): 1.5239
Undirected Enrichment Score: JAK-STAT Signaling (B16 cells; [1]): 2.5395
Undirected Enrichment Score: Lymphoid Compartment (B16 cells; [1]): 1.1946
Undirected Enrichment Score: MAPK (B16 cells; [1]): 2.756
Undirected Enrichment Score: Matrix Remodeling and Metastasis (B16 cells; [1]): 2.3587
Undirected Enrichment Score: Metabolic Stress (B16 cells; [1]): 2.8728
Undirected Enrichment Score: Myeloid Compartment (B16 cells; [1]): 1.2711
Undirected Enrichment Score: NF-kappaB Signaling (B16 cells; [1]): 1.6264
Undirected Enrichment Score: Notch Signaling (B16 cells; [1]): 2.5438
Undirected Enrichment Score: PI3K-Akt (B16 cells; [1]): 2.7297
Undirected Enrichment Score: TGF-beta Signaling (B16 cells; [1]): 3.339
Undirected Enrichment Score: Wnt Signaling (B16 cells; [1]): 3.1574
NanoString scores: Bcl2l1 (B16 cells; [2]): 0.4361 and 0.5098 and 0.454
NanoString scores: Cd68 (B16 cells; [2]): 1.981 and 1.6572 and 1.978
NanoString scores: Mdm2 (B16 cells; [2]): 0.6422 and 0.6786 and 0.4527
pathways downregulated by MMAE (gene set analysis) (B16 cells; downregulated pathways / all pathways): 17/25

CDX3379-MMAE: anti-HER3 antibody CDX3379 with 4 MMAE per antibody via MC-VC-PABC linker, labeled with Cy5
Survival curve, status (B16 tumors; CDX3379-MMAE + IR + αPD1): 0
Survival curve, status (B16 tumors; CDX3379-MMAE + IR): 0 and 1
tumor growth (MOC2 tumors): modest tumor growth delay
